Measured values from patent US7737155B2, “Nitrogen-containing heterocyclic compounds and methods of use thereof” (Schering Corporation, priority 2005, dated 2010).

target: recombinant human nicotinic acid receptor (NAR) (Homo sapiens, UniProt Q8TDS4); assay: Nicotinic Acid Receptor Assay: inhibition of forskolin-stimulated cAMP accumulation in CHO cells (MesoScale Discovery cAMP kit); format: cell-based; settings: CHO cells expressing recombinant human NAR; forskolin-stimulated cAMP; read-out: NA EC50 camp
Sequence (Q8TDS4 whole entry): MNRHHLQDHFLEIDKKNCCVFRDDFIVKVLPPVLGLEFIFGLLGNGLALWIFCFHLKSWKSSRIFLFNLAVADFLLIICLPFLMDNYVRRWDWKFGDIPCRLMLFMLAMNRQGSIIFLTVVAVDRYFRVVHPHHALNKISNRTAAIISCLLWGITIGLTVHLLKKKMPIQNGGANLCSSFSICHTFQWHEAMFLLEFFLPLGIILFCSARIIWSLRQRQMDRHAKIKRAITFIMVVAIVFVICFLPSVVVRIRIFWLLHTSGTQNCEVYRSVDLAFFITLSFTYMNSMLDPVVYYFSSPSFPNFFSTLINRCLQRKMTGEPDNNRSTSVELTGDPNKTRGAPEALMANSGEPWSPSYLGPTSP
Procedure, shortened: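 Compounds were diluted in PBS containing 6 μM forskolin and incubated with cells for 30 min at room temperature. cAMP was quantified by the MesoScale kit against an on-plate standard curve.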

Row | SMILES | EC50 [nM]
1 | O=c1[nH]c(=O)c2c(CCCc3cc(-c4cccc(C(F)(F)F)c4)no3)cc(=O)oc2[nH]1 [Compound 249] | 100 to 1000
2 | CCc1cc(=O)oc2nc(OCc3cccc(-c4ccccc4F)c3)[nH]c(=O)c12 [Compound 559] | 100 to 1000
3 | O=c1[nH]c(=O)c2c(CCCOC3CCCC3)cc(=O)oc2[nH]1 [Compound 271] | 100 to 1000
4 | CCn1c(=O)[nH]c2oc(=O)cc(CCC3CC3)c2c1=O [Compound 278] | 100 to 1000
5 | CCC(CC)CCc1cc(=O)oc2[nH]c(=O)[nH]c(=O)c12 [Compound 269] | 100 to 1000
6 | CCc1cc(=O)oc2nc(OCc3ccccc3-c3cccc(Cl)c3)[nH]c(=O)c12 [Compound 554] | > 1000
7 | CCc1cc(=O)oc2nc(OCc3nn(-c4ccccc4)nc3C)[nH]c(=O)c12 [Compound 535] | 100 to 1000
8 | CCc1cc(=O)oc2nc(OCCOc3ccc(Br)cc3)[nH]c(=O)c12 [Compound 600] | > 1000
9 | CCCCc1c(-c2ccc(NC(C)=O)cc2)c(=O)oc2[nH]c(=O)[nH]c(=O)c12 [Compound 710] | > 1000
10 | O=c1cc(CCCc2cccs2)c2c(=O)n(CC3CC3)c(=O)[nH]c2o1 [Compound 256] | > 1000
11 | CCOc1nc2oc(=O)cc(CCC(C)C)c2c(=O)[nH]1 [Compound 686] | 100 to 1000
12 | O=c1[nH]c(=O)c2c(Cc3ccc(-c4ccccc4F)cc3)cc(=O)oc2[nH]1 [Compound 205] | 100 to 1000
13 | CCc1cc(=O)oc2nc(OCc3cc(C)nn3CC)[nH]c(=O)c12 [Compound 678] | 100 to 1000
14 | CCc1noc(C)c1COc1nc2oc(=O)cc(Cc3cccc(F)c3)c2c(=O)[nH]1 [Compound 685] | 100 to 1000
15 | CCc1cc(=O)oc2nc(OCC#CC(CC)OC)[nH]c(=O)c12 (centres unmarked) [Compound 669] | 100 to 1000
16 | CCCCc1c(-c2cccc(OC)c2)c(=O)oc2[nH]c(=O)[nH]c(=O)c12 [Compound 707] | > 1000
17 | CCc1cc(=O)oc2nc(OCc3ccc(Cl)c(C(F)(F)F)c3)[nH]c(=O)c12 [Compound 521] | 100 to 1000
18 | CCC#CC(C)Oc1nc2oc(=O)cc(CC)c2c(=O)[nH]1 (centres unmarked) [Compound 639] | 100 to 1000
19 | CCc1cc(=O)oc2nc(OCc3ccccc3-n3ccnc3)[nH]c(=O)c12 [Compound 570] | 100 to 1000
20 | COc1ccc(-c2ccc(Cc3cc(=O)oc4[nH]c(=O)[nH]c(=O)c34)cc2)cc1 [Compound 207] | > 1000
21 | CCc1cc(=O)oc2nc(OCc3cc(C)c(OC)c(C)n3)[nH]c(=O)c12 [Compound 511] | > 1000

same assay, conditions: NA EC50 camp (nM), CHO cells expressing recombinant human NAR; forskolin-stimulated cAMP

Row | SMILES | EC50 [nM]
22 | CCc1cc(=O)oc2nc(OCc3ccccc3-c3cccc(C#N)c3)[nH]c(=O)c12 [Compound 509] | 100 to 1000

same assay, conditions: NA EC50 camp, inhibition of forskolin-stimulated cAMP accumulation, CHO cells expressing recombinant human NAR

Row | SMILES | EC50 [nM]
23 | O=c1cc(CCCC2CC2)c2c(=O)[nH]c(C(F)F)nc2o1 [Compound 740] | 130

same assay, conditions: inhibition of forskolin-stimulated cAMP accumulation, CHO cells expressing recombinant human NAR; read-out: NA EC50 camp

Row | SMILES | EC50 [nM]
24 | O=c1cc(CCCC2CC2)c2c(=O)n(CCF)c(=O)[nH]c2o1 [Compound 804] | 178
25 | CCn1c(=O)[nH]c2oc(=O)cc(CCC3CCCC3)c2c1=O [Compound 781] | 68
26 | CCOc1nc(=O)[nH]c2oc(=O)cc(CCC3CCC3)c12 [Compound 786] | 5330
27 | CCc1cc(=O)n(C)c2[nH]c(=O)[nH]c(=O)c12 [Compound 808] | > 10000
28 | CCC#CCOc1nc2oc(=O)cc(CCCC)c2c(=O)[nH]1 [Compound 734] | 71.8
29 | CCCCc1cc(=O)oc2[nH]c(=O)n(CF)c(=O)c12 [Compound 803] | 3450
30 | O=c1cc(CCCC2CC2)c2c(=O)n(CF)c(=O)[nH]c2o1 [Compound 802] | 12
31 | O=c1[nH]c(=O)c2c(CCC3CCCC3)cc(=O)oc2[nH]1 [Compound 125] | 1.2
32 | O=c1[nH]c(=O)c2c(CC3CCCC3)cc(=O)oc2[nH]1 [Compound 104] | 47
33 | COn1c(=O)[nH]c(=O)c2c(CCC3CCC3)cc(=O)oc21 [Compound 771] | 17
34 | CCCCCc1cc(=O)oc2nc(C(F)F)nc(OCc3ccc(OC)cc3)c12 [Compound 742] | 1070
35 | CCCCC#CCOc1nc2oc(=O)cc(CCCC3CC3)c2c(=O)[nH]1 [Compound 719] | 152
